Assay results from patent US9949489B2, “Methods for control of hemipteran insect stylet sheath structure formation” (The United States of America, as Represented by the …, priority 2015, dated 2018).

Tests used:
[1] = system: D. citri; test: Liquid ACP diet sandwich feeding assay (MFC): inhibition of de novo stylet sheath formation; format: in vivo, Diaphorina citri; conditions: about 24 h; cellulase approx 1 unit/μl; BAPN 100 mM; EDTA approx 2 mM; proteases per Table 5
Description: The next step was to determine if addition of cellulase to the diet of D. citri would interfere with stylet sheath formation. A D. citri diet is prepared as described by Hall, David et al., “Research toward an artificial diet for adult Asian citrus psyllid,” Annals of the Entomological Society of America 103.4:611-617 (2010). Approximately 25 D. citri were collected into polystyrene Cellstar 35 mm×10 mm dishes (Griener Bio-One, Monroe, N.C.) that were then sealed using a single layer of Parafilm® M (Pechiney Plastic Packaging Company, Chicago, Ill.). Approximately 99 μl of liquid ACP diet (e.g., diet lacking the solidifying agar component, see Hall, et. al., 2010, supra) was mixed with approximately 1 μl of cellulase (Sigma Aldrich, St. Louis, Mo.) and mixed. […] layer Parafilm® M surface, which was then covered with another layer of Parafilm® M to form a sandwich (e.g., Parafilm® M—liquid ACP diet with cellulase—Parafilm® M) to allow ACP to feed into the liquid ACP diet containing cellulase. This MFC was then incubated at about 25° C., at about 75% relative humidity, with a light:dark cycle of approximately 14:10 hours for a period of about 24 hours. After about 24 hours, the stylet sheaths were observed using an inverted microscope. FIGS. 3G through 3I are images of three separate locations where D. citri made attempts to feed into the liquid ACP diet containing approximately 1 unit/μl cellulase.
Because many biomolecule polymerizing enzymes require divalent cations as cofactors, the effect of ethylenediaminetetraacetic acid (EDTA), a chelator of divalent cations, on ACP SS formation was tested by adding EDTA to the previously described liquid ACP diet (see Hall et al., 2010, supra). The EDTA was added to the liquid ACP diet at a concentration of approximately 2 mM EDTA in diH2O. Approximately 200 D. citri were placed in plastic Petri dishes. The dishes were covered with a single layer of Parafilm® M to form MFC. […] The MFC plates were incubated at a temperature of about 25° C., a relative humidity of about 75%, and a light/dark cycle of about 14:10 hours duration. Following the 24-hour incubation, the fluid (either liquid ACP diet containing EDTA or just the liquid ACP diet) between the two sheets of plastic was harvested by using a sterile 5 ml syringe and 20-gauge needle which was pushed into the center of the Parafilm® M-fluid-Parafilm® M sandwich, and the fluid was then removed by syringe plunger suction. The harvested fluids were put into sterile 50 ml conical vials, placed at about −80° C. until frozen. Each vial of harvested fluid was then lypholyzed overnight. The lyophilized product was then solubilized in […], placed at about −80° C. until frozen, then each new vial was lyopholyzed overnight. The lyophilized product was then solubilized in approximately 15 μL of approximately 1× Laemmili buffer (Bio-Rad, Hercules, Calif.) containing approximately 5% 2-mercaptoethanol. The sample was loaded onto a sodium dodecyl sulfate polyacrylamide gel (SDS-PAGE) and underwent electrophoresis. The SDS PAGE gel was then stained with coomassie. Uncommon bands between the liquid ACP diet containing EDTA and liquid ACP diet without EDTA (negative control) lanes were cut out and analyzed by Orbitrap (Thermo Scientific, Waltham, Mass.) protein analysis, according to manufacturer's protocol.
After about 24-hour incubation, D. citri feeding sites were observed. […] See also Table 2 and Table 3, infra.

[2] = system: D. citri stylet sheaths (ACP SSs); test: Degradation of preformed, solidified stylet sheaths by enzymes (MFC membrane or slide incubation); parameters: species or system Diaphorina citri; key to Sheath Degradation: −: No effect apparent; +/−: inconclusive; +: apparent slight effect; ++: increased apparent effect; +++: high effect; ++++: very high effect; +++++: complete degradation of sheaths or inhibition of sheath synthesis; conditions: D. citri preformed sheaths; enzyme concentration, pH and temperature per Table 4 (cellulase 1:25, pH 6.0, 60° C.)
Description: In order to test cellulase's effect on preformed ACP SSs, formed, solidified stylet sheaths were harvested directly from the surface of an MFC membrane (in these experiments either plastic wrap or parafilm was used) as described herein and in Morgan et al. 2013, supra. Approximately 100 psyllids were placed into an MFC for about 24 hours. The MFCs consisted of D. citri caged individually and/or in groups within 100 mm×15 mm plastic Petri dishes. A single kitchen plastic wrap layer was stretched across the top of each Petri dish to seal the Petri dish from insect escape and to provide a stylet penetrable surface for insect probing.
Several MFCs (the Petri dishes covered with kitchen plastic wrap or parafilm and containing D. citri) were placed into clear Pyrex® baking dishes with the membrane (kitchen plastic wrap or parafilm) side up, and the Pyrex® baking dish is covered with a single layer of clear kitchen plastic wrap to prevent external contaminant interactions with the membrane surface during incubation. MFCs were incubated at a temperature of about 25° C., relative humidity of about 75%, and a light:dark cycle of about […]. […]

[3] = system: D. citri; test: Liquid ACP diet sandwich feeding assay (MFC): inhibition of de novo stylet sheath formation; format: in vivo, Diaphorina citri; parameters: key: −: No effect apparent; +/−: inconclusive; +: apparent slight effect; ++: increased apparent effect; +++: high effect; ++++: very high effect; +++++: complete degradation of sheaths or inhibition of sheath synthesis; conditions: enzyme in liquid ACP diet, about 24 h, 25° C., enzyme amounts and pH per Table 5 (cellulase approx 1 unit/μl)
Description: The next step was to determine if addition of cellulase to the diet of D. citri would interfere with stylet sheath formation. A D. citri diet is prepared as described by Hall, David et al., “Research toward an artificial diet for adult Asian citrus psyllid,” Annals of the Entomological Society of America 103.4:611-617 (2010). Approximately 25 D. citri were collected into polystyrene Cellstar 35 mm×10 mm dishes (Griener Bio-One, Monroe, N.C.) that were then sealed using a single layer of Parafilm® M (Pechiney Plastic Packaging Company, Chicago, Ill.). Approximately 99 μl of liquid ACP diet (e.g., diet lacking the solidifying agar component, see Hall, et. al., 2010, supra) was mixed with approximately 1 μl of cellulase (Sigma Aldrich, St. Louis, Mo.) and mixed. […]
Because many biomolecule polymerizing enzymes require divalent cations as cofactors, the effect of ethylenediaminetetraacetic acid (EDTA), a chelator of divalent cations, on ACP SS formation was tested by adding EDTA to the previously described liquid ACP diet (see Hall et al., 2010, supra). […] Uncommon bands between the liquid ACP diet containing EDTA and liquid ACP diet without EDTA (negative control) lanes were cut out and analyzed by Orbitrap (Thermo Scientific, Waltham, Mass.) protein analysis, according to manufacturer's protocol. […]

Sheath Degradation [2]: +++++
Substance: Chymopapain from papaya latex: Cysteine peptidase; Sigma #C8526
Effect on D. citri stylet sheath formation in liquid ACP diet [1]: capable of inhibiting the formation of ACP SSs | Inhibition of Sheath Formation [3]: +++++
